For experiment [1], the system named is PBMC. The experiment in a line: IL-2-induced PBMC proliferation assay ([3H]thymidine). The format is cell-based, human. The following applies: PBMC from a healthy donor; with IL-2 50 U/mL; compared with IL-2 alone and untreated controls; FIG. 1. How it is done: Isolation of peripheral blood mononuclear cells (PBMC). Lymphocytes and monocytes were purified from blood samples from healthy donors using Ficoll-Paque Plus (Amersham Biosciences, Uppsala, Sweden). The blood sample was diluted with PBS and carefully layered on a Ficoll-sodium diatrizoate solution, after which the two-phase system was centrifuged at 400×g for 30 min. […] The lymphocyte layer was collected using a Pasteur pipette, and the cells washed with HBSS to remove excess Ficoll-Paque Plus, plasma and platelets. The cells were counted and dissolved in RPMI medium containing 10% HuS, 1% PeSt and 1% glutamine.
Proliferation assay. Interleukin (IL)-2 plays a pivotal role in lymphocyte activation and proliferation. For this reason the effect of GnRH analog on IL-2-induced PBMC proliferation was investigated. PBMCs from a healthy donor were plated in round-bottomed 96-well plates at a concentration of 1×10^5 cells/100 μL in the culture medium described above. Just after the onset of culture, the cells were treated with IL-2 (Proleukin, Chiron Corporation, Emeryville, Ca, USA) at a concentration of 50 U/mL and with three different concentrations between 1×10^−9 and 1×10^−5 M of GnRH analog (Leuprolide acetate, Nordic Drugs, Limhamn, Sweden) or culture medium (FIG. 1). […] Radioactivity was measured using a 1205 Betaplate Liquid ScintillCounter (Wallac, Turku, Finland).

Experiment [2] deals with T cells. The experiment is described as follows: Stimulation of T cells in whole blood with GnRH analog, activation markers by flow cytometry. It counts as cell-based, human. How it is done: Stimulation of T-cells from HIV-patients with GnRH-analog. Because of the risk of contamination, blood samples from HIV-patients had to be handled and analyzed in a closed automated system. Heparinised blood from three HIV-patients and two healthy individuals was diluted with serum-free culture medium (Aim V from Invitrogen) and stimulated with 50 U/mL IL-2 and four different concentrations of the GnRH analog leuprolide acetate between 10^−1 and 10^−5 M. The blood samples were handled by a dispensation robot (Prep Plus) and incubated, lysed, stabilized and fixed in a TQ-Prep machine. The incubation time was 18 h and the temperature 37° C. After the incubation with Leuprolide acetate and IL-2, the cells were stained with fluorochrome-conjugated mAbs for 10 min, and red blood cells were lysed. The lymphocytes were subsequently analysed by flow cytometry on an Epics XL-MCL (all machines from Beckman Coulter). T-cells were identified by their forward-and side scatter properties, and the surface expression of CD3. The expression of the activation markers CD25, CD69, HLA ABC, and HLA DR on T cells was evaluated.

[3] abbreviates: whole blood, HIV-infected patients and control subjects, 18 h incubation.

As to `CCNC(=O)[C@@H]1CCCN1C(=O)[C@H](CCCNC(=N)N)NC(=O)[C@H](CC(C)C)NC(=O)[C@@H](CC(C)C)NC(=O)[C@H](Cc1ccc(O)cc1)NC(=O)[C@H](CO)NC(=O)[C@H](Cc1c[nH]c2ccccc12)NC(=O)[C@H](Cc1c[nH]cn1)NC(=O)[C@@H]1CCC(=O)N1` [GnRH, D-Leu^6, des-Gly-NH2^10] GnRH (1-9) NHEt], the PBMC proliferation entry in experiment [1] is “increased proliferation”. In experiment [2] (whole blood from HIV-patients, 18 h incubation), the “expression of HLA DR on T cells” value was “increased in one of three HIV-patients”. In experiment [2] (whole blood from healthy subjects or HIV-infected patients, 18 hours incubation, 50 U/mL IL-2, leuprolide acetate between 10^−1 and 10^−5 M, FIG. 6), the “expression of HLA ABC on T cells” value is reported as “upregulation of HLA ABC”. In addition, in experiment [2] (setting [3]), the “expression of CD25 on T cells” value is “only a slight increase” and the “expression of CD69 on T cells” value is recorded as “only a slight increase”.

For the origin of these results see patent US20110129532A1, “METHOD AND MEANS FOR TREATING VIRAL DISEASE, IN PARTICULAR HIV/AIDS” (ISR Immune System Regulation AB, priority 2008, published 2011).
